Legend:
S protein of HCoV-229E = S protein of HCoV-229E (Human coronavirus 229E, UniProt P15423); assay: SPR, Reichert4, CM5 chip, protein immobilised; assay type: binding
S protein of HCoV-OC43 = S protein of HCoV-OC43 (Human coronavirus OC43, UniProt P36334); assay: SPR, Reichert4, CM5 chip, protein immobilised; assay type: binding
S protein of HCoV-OC43, sequence (P36334 14-1353): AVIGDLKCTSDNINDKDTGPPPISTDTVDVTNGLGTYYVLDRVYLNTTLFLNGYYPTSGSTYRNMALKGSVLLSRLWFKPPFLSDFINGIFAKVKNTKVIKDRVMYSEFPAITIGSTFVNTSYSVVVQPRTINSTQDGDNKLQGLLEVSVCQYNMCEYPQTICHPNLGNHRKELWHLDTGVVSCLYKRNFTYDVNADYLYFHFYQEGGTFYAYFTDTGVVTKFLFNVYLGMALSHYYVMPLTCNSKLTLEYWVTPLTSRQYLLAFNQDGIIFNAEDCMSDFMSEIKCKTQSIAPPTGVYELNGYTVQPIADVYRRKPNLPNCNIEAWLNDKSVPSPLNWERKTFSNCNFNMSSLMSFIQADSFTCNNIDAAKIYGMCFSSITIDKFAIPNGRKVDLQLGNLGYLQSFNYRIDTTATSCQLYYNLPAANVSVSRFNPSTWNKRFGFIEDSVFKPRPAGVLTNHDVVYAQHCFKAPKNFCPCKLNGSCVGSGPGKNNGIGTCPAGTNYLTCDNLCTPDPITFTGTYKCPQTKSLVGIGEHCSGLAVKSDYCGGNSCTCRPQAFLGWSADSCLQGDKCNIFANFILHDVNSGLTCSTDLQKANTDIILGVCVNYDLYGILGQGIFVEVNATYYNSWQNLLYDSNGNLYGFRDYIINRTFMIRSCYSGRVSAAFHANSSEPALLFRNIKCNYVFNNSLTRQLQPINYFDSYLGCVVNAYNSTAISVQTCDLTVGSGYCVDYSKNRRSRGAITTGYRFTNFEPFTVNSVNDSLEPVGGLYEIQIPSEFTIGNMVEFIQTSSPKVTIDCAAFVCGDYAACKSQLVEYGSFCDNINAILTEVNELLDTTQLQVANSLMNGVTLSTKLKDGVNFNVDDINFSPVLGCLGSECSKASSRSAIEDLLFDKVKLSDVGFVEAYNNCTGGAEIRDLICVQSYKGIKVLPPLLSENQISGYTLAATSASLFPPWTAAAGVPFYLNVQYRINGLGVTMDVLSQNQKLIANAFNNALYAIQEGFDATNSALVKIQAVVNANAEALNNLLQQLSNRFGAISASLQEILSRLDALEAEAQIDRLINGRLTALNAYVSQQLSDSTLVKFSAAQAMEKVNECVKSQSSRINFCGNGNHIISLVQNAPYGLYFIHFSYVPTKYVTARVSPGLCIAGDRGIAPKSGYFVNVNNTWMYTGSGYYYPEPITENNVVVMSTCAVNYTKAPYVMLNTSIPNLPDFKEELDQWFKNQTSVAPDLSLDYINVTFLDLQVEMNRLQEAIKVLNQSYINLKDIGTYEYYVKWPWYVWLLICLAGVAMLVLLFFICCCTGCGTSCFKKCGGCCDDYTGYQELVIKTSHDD

S protein of HCoV-229E, sequence (P15423 16-1173): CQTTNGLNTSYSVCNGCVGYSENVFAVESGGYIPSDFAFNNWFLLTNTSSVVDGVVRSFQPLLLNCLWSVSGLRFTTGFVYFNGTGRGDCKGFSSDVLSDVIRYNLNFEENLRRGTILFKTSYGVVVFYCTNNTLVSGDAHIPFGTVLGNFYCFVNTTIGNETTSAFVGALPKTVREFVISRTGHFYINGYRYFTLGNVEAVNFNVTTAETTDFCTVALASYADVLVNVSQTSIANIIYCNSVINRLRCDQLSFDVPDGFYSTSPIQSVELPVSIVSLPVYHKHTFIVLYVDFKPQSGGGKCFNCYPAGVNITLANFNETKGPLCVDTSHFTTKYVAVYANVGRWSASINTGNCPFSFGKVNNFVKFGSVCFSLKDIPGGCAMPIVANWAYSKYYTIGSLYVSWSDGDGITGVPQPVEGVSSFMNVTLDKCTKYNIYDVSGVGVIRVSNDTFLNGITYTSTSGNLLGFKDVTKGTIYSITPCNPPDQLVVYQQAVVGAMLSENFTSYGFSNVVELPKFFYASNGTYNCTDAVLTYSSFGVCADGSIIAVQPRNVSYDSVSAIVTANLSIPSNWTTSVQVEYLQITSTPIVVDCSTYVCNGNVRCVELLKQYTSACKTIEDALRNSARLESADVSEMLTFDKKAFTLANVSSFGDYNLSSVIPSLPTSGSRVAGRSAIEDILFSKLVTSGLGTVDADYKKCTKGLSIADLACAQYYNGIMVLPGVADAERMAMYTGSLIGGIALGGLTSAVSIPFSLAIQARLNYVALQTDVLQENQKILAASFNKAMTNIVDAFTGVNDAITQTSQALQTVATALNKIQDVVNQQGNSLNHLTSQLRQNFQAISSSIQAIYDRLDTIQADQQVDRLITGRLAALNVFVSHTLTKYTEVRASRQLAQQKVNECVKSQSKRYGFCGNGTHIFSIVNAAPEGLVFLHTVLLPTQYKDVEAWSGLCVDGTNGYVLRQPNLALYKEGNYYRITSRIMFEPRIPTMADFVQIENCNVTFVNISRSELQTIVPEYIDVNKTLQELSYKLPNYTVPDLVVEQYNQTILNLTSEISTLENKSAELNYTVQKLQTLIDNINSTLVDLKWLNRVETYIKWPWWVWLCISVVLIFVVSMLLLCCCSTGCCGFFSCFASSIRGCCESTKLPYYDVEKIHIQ

In the case of `CC1(C)[C@@H](O[C@H]2O[C@H](C(=O)O)[C@@H](O)[C@H](O)[C@H]2O[C@@H]2O[C@H](C(=O)O)[C@@H](O)[C@H](O)[C@H]2O)CC[C@]2(C)[C@H]3C(=O)C=C4[C@@H]5C[C@@](C)(C(=O)O)CC[C@]5(C)CC[C@@]4(C)[C@]3(C)CC[C@@H]12` [Diammonium glycyrrhizinate], the Kd (S protein of HCoV-229E) is reported as 37.9 µM and the Kd (S protein of HCoV-OC43) is reported as 5.76 µM.

From paper PMC12250084 (International Journal of Molecular Sciences, 2025)
